Measured values reported in publication PMC11184554, “Nature-Inspired Gallinamides Are Potent Antischistosomal Agents: Inhibition of the Cathepsin B1 Protease Target and Binding Mode Analysis” (ACS Infectious Diseases, 2024).

How the values were obtained:
[1] = system: S. mansoni newly transformed schistosomula (NTS); test: Phenotypic screen with newly transformed schistosomula (NTS); format: cell-based
Method: The same 19 gallinamides were screened for bioactivity against S. mansoni newly transformed schistosomula (NTS), the postinvasive parasite stage that feeds on host blood.[40] In this primary assay, the NTS were exposed to 1 and 10 μM compounds for 3 days, and the resulting phenotypic responses were graded from 0 through 4, i.e., the least to the most severe (Table 2 and Table S1). […] The effects were more pronounced after 72 h, and when the higher, 10 μM, compound concentration was used (Table S1). […] Also, compared to gallinamide A and its analogs, 3 has an additional N-terminal N-acetamide modification that further reduces bioactivity (Table 2).
Phenotypic screens employed S. mansoni newly transformed schistosomula (NTS) and adults and were carried out as described previously.[18]−[20],[42] NTS were prepared by mechanically transforming infective larvae (cercariae).[40],[42] NTS (200–300 parasites) were incubated in flat-bottomed 96-well plates in 200 μL of Basch Medium 169 containing 5% (v/v) FBS, 100 U mL^–1 penicillin and 100 μg mL^–1 streptomycin (complete Basch medium)[75] at 5% CO2 and 37 °C.[76],[77] Inhibitors were added at final concentrations of 1 and 10 μM, and changes in phenotypes were observed under an inverted microscope every 24 h for up to 72 h.
A constrained nomenclature of “descriptors”[39],[42] was used to record the multiple and dynamic changes in movement, shape, and translucence that the schistosome parasite is capable of (Table S1 for NTS and Table S3 for adults). These descriptors were then converted into an ordinal “severity score” system ranging from 0 (no effect) to 4 (maximum effect), which allows for the relative comparison of compound effects.

[2] = system: recombinant SmCB1; test: Kinetic inhibition assay with recombinant SmCB1 (k2nd); format: biochemical, S. mansoni; conditions: for decrease in inhibitory potency vs gallinamide A / decrease in inhibition potency vs 8: ratio of k2nd values; for SmCB1 inhibition k2nd: second-order rate constant (kinact/Ki), substrate Cbz–Phe–Arg–AMC, pH 5.5, 37 °C, mean ± SE; for decrease in inhibition potency vs 8: range over the compounds named
Method: Gallinamide A and a series of its 18 derivatives were evaluated in vitro as inhibitors of SmCB1 to explore the binding specificities of the subsites in the enzyme’s active site. The gallinamide A inhibitor scaffold can be defined by positions P4 through P1′ (Schechter and Berger nomenclature[37]), which were assigned according to the binding mode analysis (see the crystallographic section below). The substituents R4, R1, and R1′ introduced on the scaffold (Table 2) are numbered according to the respective positions P4, P1, and P1′. The compounds’ second-order rate constants (k2nd) were determined using a kinetic inhibition assay with recombinant SmCB1 and the substrate, Cbz–Phe–Arg–AMC.
Inhibition measurements were performed in duplicate in 96-well microplates (100 μL assay volume) at 37 °C. SmCB1 (40 pM) was added to a mixture of the fluorogenic substrate Cbz–Phe–Arg–AMC (25 μM) and an inhibitor (0–100 μM) in 0.1 M sodium acetate, pH 5.5, containing 2.5 mM dithiothreitol and 0.01% (w/v) BRIJ 35. Substrate hydrolysis was monitored in an Infinite M1000 microplate reader (Tecan) at excitation and emission wavelengths of 360 and 465 nm, respectively, for up to 150 min. An observed first-order rate constant, kobs, was calculated at each inhibitor concentration by fitting the progress curve to the equation P = vi/kobs(1 – exp(−kobst)) + d where P is the product formation, t is the reaction time, vi is the initial velocity, and d is the offset. […] The second-order rate constant, k2nd, (and SE value) was determined by fitting the linear equation kobs = (k2nd[I])/(1 + [S]/Km), where [S] is the substrate concentration, [I] is the inhibitor concentration, and KM is the Michaelis–Menten constant. The KM value determined for SmCB1 was 25 μM. […] To determine IC50 values, SmCB1 (40 pM) was preincubated with the inhibitor (0–100 μM) for 30 min under assay conditions as described above, followed by the addition of the fluorogenic substrate Cbz–Phe–Arg–AMC (20 μM). Substrate hydrolysis was monitored for 30 min in a microplate reader as described above. The IC50 values were determined by nonlinear regression using GraFit software (Erithacus Software).

[3] = 1 μM compound, 24 h, scale 0 (no effect) to 4 (most severe)
[4] = 1 μM compound, 48 h, scale 0 to 4
[5] = 1 μM compound, 72 h, scale 0 to 4
[6] = 10 µM compound, 24 h, scale 0 to 4
[7] = 10 µM compound, 48 h, scale 0 to 4
[8] = 10 µM compound, 72 h, scale 0 to 4
[9] = Phe in R1′ changed from S to R configuration

SMILES | schistosomula severity score [1, 3] | schistosomula severity score [1, 4] | schistosomula severity score [1, 5] | schistosomula severity score [1, 6] | schistosomula severity score [1, 7] | schistosomula severity score [1, 8] | decrease in inhibitory potency vs gallinamide A [2] | SmCB1 inhibition k2nd [2] | schistosomula phenotype descriptors ([1]; 1 µM compound, 72 h) | schistosomula phenotype descriptors ([1]; 10 µM compound, 48 h) | schistosomula phenotype descriptors ([1]; 10 µM compound, 72 h) | schistosomula phenotype descriptors ([1]; 1 µM compound, 48 h) | improvement of inhibition vs 14 [2, 9] | schistosomula phenotype descriptors ([1]; 10 µM compound, 24 h) | decrease in inhibition potency vs 8 [2] | improvement of inhibition vs 17 [2, 9] | decrease in inhibition vs 7 ([2]; Phe in R1 changed from S to R configuration) | improvement of inhibition vs 18 [2, 9] | decrease in k2nd ([2]; absence of a double bond in the acrylamide group)
COC1=CC(=O)N(C(=O)/C=C/[C@H](C)NC(=O)[C@H](CC(C)C)NC(=O)[C@H](CC(C)C)OC(=O)[C@H](C(C)C)N(C)C)[C@H]1C [compound 2] | 0 | 1 | 4 | 4 | 4 | 4 | 2 fold | 3334 ± 559 M^–1·s^–1 | – | – | – | – | – | – | – | – | – | – | –
CCC(C)C(NC(C)=O)C(=O)NC(CC(C)C)C(=O)NC(CC(C)C)C(=O)NC(C)C=CC(=O)N1C(=O)C=C(OC)C1C (stereo not drawn) [compound 3] | 0 | 0 | 2 | 0 | 2 | 2 | 2.3 fold | 2902 ± 172 M^–1·s^–1 | Dark, R | Dark, R | Dark, R | – | – | – | – | – | – | – | –
CCC(C)C(C(=O)NC(CC(C)C)C(=O)NC(CC(C)C)C(=O)NC(C)C=CC(=O)N1C(=O)C=C(OC)C1C)N(C)C (stereo not drawn) [compound 4] | 0 | 0 | 4 | 1 | 4 | 4 | 2.3 fold | 2894 ± 113 M^–1·s^–1 | – | – | – | – | – | – | – | – | – | – | –
C#CCCCCOC1=CC(=O)N(C(=O)C=CC(C)NC(=O)C(CC(C)C)NC(=O)C(CC(C)C)OC(=O)C(C(C)CC)N(C)C)C1C (stereo not drawn) [compound 5] | 0 | 4 | 4 | 1 | 4 | 4 | 2.4 fold | 2792 ± 360 M^–1·s^–1 | – | – | – | – | – | – | – | – | – | – | –
CCC(C)C(C(=O)OC(CC(C)C)C(=O)NC(CC(C)C)C(=O)NC(C=CC(=O)N1C(=O)C=C(OC)C1Cc1ccccc1)Cc1ccccc1)N(C)C (stereo not drawn) [compound 7] | 0 | 3 | 4 | 1 | 4 | 4 | – | 942 ± 50 M^–1·s^–1 | – | – | – | Dark, R, S | 17 fold | – | – | – | – | – | –
CCC(C)C(C(=O)OC(CC(C)C)C(=O)NC(CC(C)C)C(=O)NC(C=CC(=O)N1C(=O)C=C(OC)C1C)Cc1ccccc1)N(C)C (stereo not drawn) [compound 8] | 1 | 4 | 4 | 3 | 4 | 4 | 7.5 fold | 887 ± 46 M^–1·s^–1 | – | – | – | – | – | Dark, R, S | – | – | – | – | –
CCC(C)C(C(=O)OC(CC(C)C)C(=O)NC(CC(C)C)C(=O)NC(C=CC(=O)N1C(=O)C=C(OC)C1CC(C)C)Cc1ccccc1)N(C)C (stereo not drawn) [compound 10] | 0 | 2 | 4 | 0 | 4 | 4 | – | 537 ± 48 M^–1·s^–1 | – | – | – | Dark, R | – | – | – | – | – | – | –
COC1=CC(=O)N(C(=O)/C=C/[C@H](Cc2ccccc2)NC(=O)[C@H](CC(C)C)NC(=O)[C@H](CC(C)C)OC(=O)[C@H](C(C)C)N(C)C)[C@H]1CC(C)C [compound 11] | 1 | 3 | 4 | 1 | 4 | 4 | – | 295 ± 17 M^–1·s^–1 | – | – | – | Dark, R, S | – | – | – | – | – | – | –
COC1=CC(=O)N(C(=O)/C=C/[C@H](Cc2ccccc2)NC(=O)[C@H](CC(C)C)NC(=O)[C@H](CC(C)C)OC(=O)[C@H](Cc2ccccc2)N(C)C)[C@H]1C [compound 12] | 1 | 2 | 4 | 3 | 4 | 4 | – | 212 ± 30 M^–1·s^–1 | – | – | – | Dark, R | – | Dark, R, S | 4.2–49 fold | – | – | – | –
COC1=CC(=O)N(C(=O)/C=C/[C@H](Cc2ccccc2)NC(=O)[C@H](CC(C)C)NC(=O)[C@H](CC(C)C)OC(=O)[C@H](Cc2ccccc2)N(C)C)[C@@H]1Cc1ccccc1 [compound 13] | 0 | 2 | 4 | 2 | 4 | 4 | – | 109 ± 2 M^–1·s^–1 | – | – | – | – | – | Dark, R | – | 6 fold | – | – | –
CCC(C)C(C(=O)OC(CC(C)C)C(=O)NC(CC(C)C)C(=O)NC(C=CC(=O)N1C(=O)C=C(OC)C1Cc1ccccc1)Cc1ccccc1)N(C)C (stereo not drawn) [compound 14] | 0 | 3 | 4 | 1 | 4 | 4 | – | 54.5 ± 1.3 M^–1·s^–1 | – | – | – | – | – | – | 4.2–49 fold | – | – | – | –
CCC(C)C(C(=O)OC(CC(C)C)C(=O)NC(CC(C)C)C(=O)NC(C=CC(=O)N1C(=O)C=C(OC)C1Cc1ccccc1)Cc1ccccc1)N(C)C (stereo not drawn) [compound 15] | 0 | 3 | – | 2 | 4 | 4 | – | 41.6 ± 1.6 M^–1·s^–1 | – | – | – | – | – | Dark, R | – | – | 23 fold | 2.6 fold | –
CCC(C)C(C(=O)OC(CC(C)C)C(=O)NC(CC(C)C)C(=O)NC(C)CCC(=O)N1C(=O)C=C(OC)C1C)N(C)C (stereo not drawn) [compound 16] | 0 | 0 | 0 | 0 | 2 | 2 | – | 36.9 ± 0.3 M^–1·s^–1 | – | Dark, R | Dark, R | – | – | – | – | – | – | – | 2 orders of magnitude
COC1=CC(=O)N(C(=O)/C=C/[C@H](Cc2ccccc2)NC(=O)[C@H](CC(C)C)NC(=O)[C@H](CC(C)C)OC(=O)[C@H](Cc2ccccc2)N(C)C)[C@H]1Cc1ccccc1 [compound 17] | 0 | 0 | 4 | 1 | 4 | 4 | – | 18.2 ± 0.2 M^–1·s^–1 | – | – | – | – | – | – | 4.2–49 fold | – | – | – | –
